Patent US9090617B1, “Agonists of Src homology-2 containing protein tyrosine phosphatase-1 and treatment methods using the same” (National Taiwan University, priority 2011, dated 2015)
“Also recorded” adds a separate entry of the source. Read-outs that look alike come from different tables or passages of the source.

Key:
HCC cells [1] = assay: Apoptosis analysis by flow cytometry (sub-G1); format: cell-based; conditions: for apoptosis (sub-G1): HCC cells, 24 h
Procedure: Apoptotic cells were measured by flow cytometry (sub-G1). After treatment with various compounds, cells were trypsinized, collected by centrifugation and resuspended in PBS. After centrifugation, the cells were washed in PBS and resuspended in […] (PI) staining solution. Specimens were incubated in the dark for 30 min at 37° C. and then analyzed with an EPICS Profile II flow cytometer (Coulter Corp., Hialeah, Fla.). All experiments were performed in triplicate
Collected cells were fixed in 75% Ethanol and stained with 20 ug/ml Propidium Iodide (PI). Sub-G1 analysis was performed by flow-cytometry. […] Points, mean; bars, SD (n=6).

SHP-1 [2] = molecular target: T1, SHP-1 (Homo sapiens, UniProt P29350); assay: Phosphatase activity of SHP-1 immunoprecipitated from PLC5 cells, incubated with compound in vitro; format: biochemical; parameters: PLC5 protein extract was incubated with anti-SHP-1 antibody in immunoprecipitation buffer overnight; endogenous in cells; host or cells: PLC5 (PLC/PRF/5)
Procedure: PLC5 protein extract was incubated with anti-SHP-1 antibody in immunoprecipitation buffer overnight. Protein G Sepharose 4 Fast flow (GE Healthcare Bio-Science) was added to each sample, followed by incubation for 3 hours at 4° C. with rotation. […] RediPlate 96 EnzChek Tyrosine Phosphatase Assay kit (R-22067) was used for SHP-1 activity assay (Molecular Probes).

SHP-1 [3] = molecular target: T1, SHP-1; assay: Phosphatase activity of recombinant SHP-1; format: biochemical; conditions: 25 ng protein, 30 minutes
Procedure: RediPlate 96 EnzChek Tyrosine Phosphatase Assay kit (R-22067) was used for SHP-1 activity assay (Molecular Probes). Recombinant SHP-1 protein (25 ng) was incubated with either SC-43 or SC-40 at the indicated dose for 30 minutes and then analyzed by SHP-1 phosphatase activity.

[4] = test system: p-STAT3, cyclin D1, survivin, Mc1-1; assay: Western blot of STAT3-related proteins in HCC cells; format: cell-based; conditions: HCC cells, 24 h
Procedure: Cells were treated with various compounds at 5 and 10 μM for 24 h. Cell lysates were analyzed by western blot.
HCC cells treated with SC-43 (10 μM for 24 h) were collected with RIPA lysis buffer. Antibodies for immunoblotting such as cyclin D1 was purchased from Santa Cruz Biotechnology. Other antibodies such as survivin, phospho-STAT3 (Tyr705), STAT3, Mc1-1, SOCS1, and SOCS3 were from Cell Signaling.

PLC5 tumors = assay: Subcutaneous PLC5 xenograft; format: in vivo, mice; conditions: for average tumor size versus control mice at the end of treatment: SC PLC5 tumor-bearing mice
Procedure: All experimental procedures using these mice were done in accordance with protocols approved by the Institutional Laboratory Animal Care and Use Committee of National Taiwan University. Each mouse was inoculated s.c. in the dorsal flank with 1×10^6 PLC5 cells suspended in 0.1 mL of serum-free medium containing 50% Matrigel (BD Biosciences). When tumors reached 100 to 200 mm3, mice received SC-40 tosylate (10 or 20 mg/kg) orally once daily. Tumors were measured weekly using calipers, and their volumes were calculated using the following standard formula: width×length×height×0.52.
(§1) We established an HCC orthotopic model using luc2-expressed PLC5 cells inoculated into liver of nude mice. […] To further correlate the molecular mechanism with the anticancer effect in vivo, p-STAT3 and SHP-1 activity in tumor extract from vehicle- and SC-treated mice was analyzed by immunoblotting. […] The pharmacokinetics of SC-43 was determined (FIG. 25E).

phospho-STAT3 (Tyr705) = assay: Phospho-STAT3 (Tyr705) sandwich ELISA; format: cell-based; conditions: for p-STAT3 / STAT3 activity (phospho-STAT3 ELISA and luciferase reporter): PLC5 cells
Procedure: A PathScan Phospho-Stat3 (Tyr705) Sandwich ELISA Kit was used for the detection of phospho-STAT3 (Cell Signaling, Danvers, Mass.). Cells were pre-treated with IL-6 1 ng/ml and then exposed with various compounds at 10 μM for 24 h. After incubation with cell lysates, both non-phospho- and phospho-Stat3 proteins are captured by the coated antibody. The expression of phospho-STAT3 was measured at 450 nm absorbance.
The decreased level of P-STAT3 induced by these derivatives was correlated with cell toxicity. In the other words, these derivatives induced cell death in part through inhibition of STAT3.
We also assayed the activation status of p-STAT3 by STAT3 ELISA. […] SC-1 or sorafenib-treated cell extracts were incubated with antibody against phosphorylated STAT3 at Y705. […] To evaluate the transcriptional activity, STAT3-binding region was cloned into Luc reporter. […] The firefly luciferase activity was evaluated and normalized by Renilla luciferase.
p-STAT3 activity: PLC5 cells treated with SC derivatives were collected in RIPA buffer and analyzed in p-STAT3 ELISA kit. The assay protocol follows the manufacturer.

HCC cells [5] = assay: cells; conditions: 72 h
Source text: Points, mean; bars, SD (n=6).
Points, mean; bars, SD ([…]). […] The N-SH2 domain is in orange, the C-SH2 domain is in marine, the PTP domain is in hot pink, and the linkers between them are in gray. […] ELISA, enzyme-linked immunosorbent assay.

[6] = test system: PLC5/luc2 orthotopic tumors; assay: HCC orthotopic model with PLC5/luc2 cells; format: in vivo, mice; conditions: 10 mg/kg/day orally
Procedure: All experimental procedures using these mice were done in accordance with protocols approved by the Institutional Laboratory Animal Care and Use Committee of National Taiwan University. Each mouse was inoculated within liver […] with 1×10^4 PLC5/luc cells suspended in 0.1 mL of serum-free medium containing 50% Matrigel (BD Biosciences). […] Tumor growth was monitored by non-invasive in vivo imaging system (IVIS) image system twice weekly.
as §1

Huh-7 xenograft tumor = assay: Huh-7 xenograft with SC-59 or sorafenib and radiation; format: in vivo, mice; conditions: 10 mg/kg p.o. once daily plus 5 Gy radiation for 4 days
Procedure: (A) The effects of SC-59 and radiation on tumor growth. Each mouse was inoculated subcutaneously in the right leg with […] Huh-7 cells suspended in Matrigel. When the tumor reached a volume of 400-600 mm3, mice received vehicle, 5 Gy radiation (one fraction per day) for 4 days, or 10 mg/kg SC-59 p.o. once daily, or a combination for the duration of the study. The data points indicate the mean values (n=6) and the bars indicate the standard error. There were significant differences between the combined treatment group and the vehicle control group (*, P<0.05, **, P<0.01). (B) Left, the expression of P-STAT3 in the Huh-7 tumors was analyzed by western blot. Right, quantified data for p-STAT3 to STAT3. (C) The activity of SHP-1 in Huh-7 tumors. Values are means±SD, *, P<0.05. (D) Body weight of mice after SC-59 and RT treatment. […] The data points indicate the mean values (n=6) and the bars indicate the standard error. […] (H) Body weight of mice treated with vehicle, RT, sorafenib, and combination.
To further elucidate the molecular events responsible for this synergistic effect, we examined the expression level of p-STAT3 in the tumor extract.

JAK2 = molecular target: T2, JAK2 (Homo sapiens, UniProt O60674); assay: JAK2 kinase activity; format: cell-based; conditions: PLC5 cells, 10 μM, 24 h
T2 construct: endogenous in cells; host or cells: PLC5
Source text: (§2) The RediPlate 96 EnzChek® Tyrosine Phosphatase Assay Kit (R-22067) was used for SHP-1 activity assay (Molecular Probes, Carlsbad, Calif.). The Raf-1 kinase cascade assay kit (Upstate-Millipore, Billerica, Mass.) was used to examine the Raf-1 kinase activity. The JAK2 kinase activity kit was purchased from Reaction Biology Corp. (Malvern, Pa.).

STAT3 = STAT3 luciferase reporter assay; format: cell-based; conditions: 10 μM, 24 h
Procedure: Cells were seeded in 96-well plate and pre-treated with IL-6 at the dose […] for 30 min. The STAT3 reporter kit was purchased from SABiosciences (Frederick, Md.).
STAT3 reporter assay: PLC5 cells were seeded in a 96-well plate. Cells were pretransfected with STAT3 reporter construct for 24 h and treated with derivatives for another 24 h. The STAT3 Reporter Kit was purchased from SABiosciences.

VEGFR1 = molecular target: T3, VEGFR1 (Homo sapiens, UniProt P17948); assay: VEGFR1 activity in HUVEC cells; format: cell-based; conditions: 24 h
T3 construct: we tested the effect of SC-49 on the activity of VEGFR1 in HUVEC cells; endogenous in cells; host or cells: HUVEC
Source text: To further investigate the effect of SC-49 on angiogenesis, we tested the effect of SC-49 on the activity of VEGFR1 in HUVEC cells.

Raf-1 = molecular target: T4, Raf-1 (Homo sapiens, UniProt P04049); assay: Raf-1 kinase activity in lysates of treated cells; format: cell-based
T4 construct: Raf-1 immunoprecipitated from PLC5 cell extracts was incubated with MEK recombinant protein; endogenous in cells; host or cells: PLC5
Source text: as §2

Huh-7 tumors = conditions: for SHP-1 activity in Huh-7 tumors: tumor extract
Procedure: Male NCr athymic nude mice (5-7 weeks of age) were obtained from the National Laboratory Animal Center (Taipei, Taiwan). All experimental procedures using these mice were performed in accordance with protocols approved by National Taiwan University. […] Controls received vehicle (Chen K F et al. Cancer Res. 2008; 68:6698-6707).

PLC5 cells = assay: MTT assay for cell growth inhibition in PLC5 cells; format: cell-based
Procedure: These compounds were analyzed by MTT assay for cell growth inhibition in the PLC5 cells.
Next, we changed the pyridine to a quinoline ring and amide linker to generate compounds 12-25. These compounds were also analyzed by MTT assay for cell growth inhibition in the PLC5 cells.

T1 sequence (P29350 whole entry): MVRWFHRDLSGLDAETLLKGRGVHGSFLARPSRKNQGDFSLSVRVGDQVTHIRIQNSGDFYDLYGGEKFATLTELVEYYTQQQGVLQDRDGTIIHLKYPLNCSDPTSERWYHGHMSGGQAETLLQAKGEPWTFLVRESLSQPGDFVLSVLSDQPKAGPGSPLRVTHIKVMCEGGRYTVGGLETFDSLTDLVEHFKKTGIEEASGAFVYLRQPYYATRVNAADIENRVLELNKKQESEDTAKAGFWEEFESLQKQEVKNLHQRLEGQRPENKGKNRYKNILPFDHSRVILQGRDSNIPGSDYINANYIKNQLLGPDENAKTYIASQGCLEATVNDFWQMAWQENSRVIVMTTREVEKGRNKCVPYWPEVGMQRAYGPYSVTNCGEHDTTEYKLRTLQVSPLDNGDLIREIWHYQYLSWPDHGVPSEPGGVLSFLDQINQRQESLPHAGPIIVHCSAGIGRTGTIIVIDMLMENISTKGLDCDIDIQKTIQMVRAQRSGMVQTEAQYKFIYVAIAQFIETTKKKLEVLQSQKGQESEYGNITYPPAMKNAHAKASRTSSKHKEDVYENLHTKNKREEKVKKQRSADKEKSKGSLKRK
T4 sequence (P04049 whole entry): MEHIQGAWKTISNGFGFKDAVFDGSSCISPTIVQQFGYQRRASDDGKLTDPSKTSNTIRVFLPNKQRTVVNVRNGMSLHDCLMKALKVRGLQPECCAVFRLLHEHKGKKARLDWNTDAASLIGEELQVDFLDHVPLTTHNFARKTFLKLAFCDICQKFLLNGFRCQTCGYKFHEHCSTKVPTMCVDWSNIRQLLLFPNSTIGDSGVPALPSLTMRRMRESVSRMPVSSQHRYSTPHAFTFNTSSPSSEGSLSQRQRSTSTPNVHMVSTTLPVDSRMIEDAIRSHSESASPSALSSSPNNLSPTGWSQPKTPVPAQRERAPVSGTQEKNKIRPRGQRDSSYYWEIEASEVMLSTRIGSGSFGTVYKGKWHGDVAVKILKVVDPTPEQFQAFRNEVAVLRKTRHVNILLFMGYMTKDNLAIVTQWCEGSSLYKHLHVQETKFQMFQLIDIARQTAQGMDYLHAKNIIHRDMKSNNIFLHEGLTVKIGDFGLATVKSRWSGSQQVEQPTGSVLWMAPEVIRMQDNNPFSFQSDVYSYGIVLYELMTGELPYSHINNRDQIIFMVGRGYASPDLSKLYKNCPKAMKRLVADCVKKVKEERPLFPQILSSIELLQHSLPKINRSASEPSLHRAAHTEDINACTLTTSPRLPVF
T2 sequence (O60674 whole entry): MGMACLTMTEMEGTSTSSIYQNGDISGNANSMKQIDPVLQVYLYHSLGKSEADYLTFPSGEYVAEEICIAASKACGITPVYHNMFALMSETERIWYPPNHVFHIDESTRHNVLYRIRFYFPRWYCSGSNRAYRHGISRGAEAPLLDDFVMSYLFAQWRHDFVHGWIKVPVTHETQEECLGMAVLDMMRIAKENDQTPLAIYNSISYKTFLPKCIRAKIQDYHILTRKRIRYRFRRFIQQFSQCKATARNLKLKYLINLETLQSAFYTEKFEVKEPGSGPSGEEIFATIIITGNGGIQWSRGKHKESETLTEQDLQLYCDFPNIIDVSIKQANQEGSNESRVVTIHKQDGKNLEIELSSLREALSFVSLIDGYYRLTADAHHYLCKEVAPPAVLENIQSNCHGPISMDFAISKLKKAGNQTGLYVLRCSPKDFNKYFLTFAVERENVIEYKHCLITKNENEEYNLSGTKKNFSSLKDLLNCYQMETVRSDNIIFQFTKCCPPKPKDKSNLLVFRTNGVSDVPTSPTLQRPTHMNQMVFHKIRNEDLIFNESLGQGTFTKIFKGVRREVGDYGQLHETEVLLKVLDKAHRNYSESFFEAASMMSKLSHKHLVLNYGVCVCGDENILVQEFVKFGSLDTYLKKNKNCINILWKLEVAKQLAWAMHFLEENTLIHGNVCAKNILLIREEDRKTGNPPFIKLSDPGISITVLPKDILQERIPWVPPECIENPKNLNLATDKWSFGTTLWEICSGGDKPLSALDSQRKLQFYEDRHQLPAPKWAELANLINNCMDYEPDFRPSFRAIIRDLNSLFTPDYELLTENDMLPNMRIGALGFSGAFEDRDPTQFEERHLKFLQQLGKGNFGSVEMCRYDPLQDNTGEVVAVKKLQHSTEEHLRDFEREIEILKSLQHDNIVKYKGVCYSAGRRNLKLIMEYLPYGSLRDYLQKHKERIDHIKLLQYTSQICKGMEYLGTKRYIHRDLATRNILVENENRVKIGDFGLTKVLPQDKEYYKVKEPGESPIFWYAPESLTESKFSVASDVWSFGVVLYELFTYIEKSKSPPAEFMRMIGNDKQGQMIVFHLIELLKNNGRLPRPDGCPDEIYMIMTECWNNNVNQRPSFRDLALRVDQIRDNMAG
T3 sequence (P17948 27-1338): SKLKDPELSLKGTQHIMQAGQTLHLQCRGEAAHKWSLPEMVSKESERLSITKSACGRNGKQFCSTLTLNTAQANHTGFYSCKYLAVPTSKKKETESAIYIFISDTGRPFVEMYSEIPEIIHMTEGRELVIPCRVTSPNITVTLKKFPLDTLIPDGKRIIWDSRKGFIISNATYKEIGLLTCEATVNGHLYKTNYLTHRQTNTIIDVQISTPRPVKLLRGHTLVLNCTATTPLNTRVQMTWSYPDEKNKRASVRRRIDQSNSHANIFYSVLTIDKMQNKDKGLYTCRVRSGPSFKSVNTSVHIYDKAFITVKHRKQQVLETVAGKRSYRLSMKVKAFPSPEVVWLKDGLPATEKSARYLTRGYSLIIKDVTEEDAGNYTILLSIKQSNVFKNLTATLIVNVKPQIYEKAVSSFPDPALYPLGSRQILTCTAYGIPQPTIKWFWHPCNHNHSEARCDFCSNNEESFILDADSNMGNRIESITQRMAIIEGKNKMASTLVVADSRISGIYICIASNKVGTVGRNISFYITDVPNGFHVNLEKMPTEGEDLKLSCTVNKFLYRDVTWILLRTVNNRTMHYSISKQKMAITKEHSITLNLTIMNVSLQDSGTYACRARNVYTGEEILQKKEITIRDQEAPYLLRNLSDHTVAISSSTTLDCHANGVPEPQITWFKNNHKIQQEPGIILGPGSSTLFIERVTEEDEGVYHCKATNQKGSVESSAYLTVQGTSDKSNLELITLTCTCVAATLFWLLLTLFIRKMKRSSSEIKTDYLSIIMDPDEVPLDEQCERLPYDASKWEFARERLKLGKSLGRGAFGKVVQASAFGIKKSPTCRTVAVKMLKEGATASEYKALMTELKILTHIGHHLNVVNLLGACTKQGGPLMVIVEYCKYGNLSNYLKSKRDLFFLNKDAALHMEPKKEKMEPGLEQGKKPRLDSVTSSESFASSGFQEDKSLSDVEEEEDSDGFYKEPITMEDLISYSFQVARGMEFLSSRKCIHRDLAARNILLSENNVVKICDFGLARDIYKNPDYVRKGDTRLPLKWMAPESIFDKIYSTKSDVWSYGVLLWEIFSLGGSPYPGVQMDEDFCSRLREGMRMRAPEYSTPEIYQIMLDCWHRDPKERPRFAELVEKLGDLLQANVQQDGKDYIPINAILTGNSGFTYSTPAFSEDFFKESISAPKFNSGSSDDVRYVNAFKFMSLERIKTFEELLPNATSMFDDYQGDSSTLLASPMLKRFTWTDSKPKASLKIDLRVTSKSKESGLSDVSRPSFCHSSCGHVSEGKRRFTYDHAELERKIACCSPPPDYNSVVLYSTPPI

Nc1cc(Oc2cccc(NS(=O)(=O)c3cccc(C(F)(F)F)c3)c2)ccc1[N+](=O)[O-] [SC-40, N-(3-(trifluoromethyl)benzene-sulfonyl)-3-(3-amino-4-nitrophenoxy)benzenamine]
apoptosis (sub-G1) (HCC cells [1]): show significant anti-cancer effects in HCC cells
apoptosis in sorafenib-resistant cells (HCC cells [1]; sorafenib-resistant HCC cells (SR1)): resulted in significant apoptosis in sorafenib-resistant cells at submicromolar concentrations
phosphatase activity of SHP-1 in vitro (SHP-1 [2]; SHP-1-containing PLC5 extract, 10 or 100 nmol/L, 30 min, 4° C.): increase phosphatase activity of SHP-1 in vitro
phosphatase activity of recombinant SHP-1 (SHP-1 [3]): increase phosphatase activity of SHP-1 in vitro
p-STAT3 and STAT3-related proteins (Western blot) [4]: down-regulates phospho-STAT3-related signaling pathway in HCC
p-STAT3 and SHP-1 activity in PLC5 tumor lysate (PLC5 tumors; 10 mg/kg/day orally): Down-regulation of p-STAT3 and elevation of SHP-1 activity
body weight of the animals (PLC5 tumors; PLC5 xenograft, 10 or 20 mg/kg orally once daily): do not affect body weight of the animals
average tumor size versus control mice at the end of treatment (PLC5 tumors; 10 mg/kg/day orally): less than half that of control mice
antitumor effect on PLC5 tumors (PLC5 tumors; SC-40 tosylate 10 or 20 mg/kg orally once daily): has significant anti-tumor effect on PLC5 tumors
p-STAT3 / STAT3 activity (phospho-STAT3 ELISA and luciferase reporter) (phospho-STAT3 (Tyr705)): induce strong inhibition of p-STAT3 activity; also recorded: showed more potent inhibition of the p-STAT3-related signaling pathway
viability of HCC cells / cytotoxicity (HCC cells [5]): showed lower 50% inhibitory concentration, compared to sorafenib

Cc1ccc(NC(=O)Nc2ccc(C)c(Oc3ccc(C#N)cc3)c2)cc1Oc1ccc(C#N)cc1 [SC-60, 1,3-bis(3-(4-cyanophenoxy)-4-methylphenyl)urea]
p-STAT3 and STAT3-related proteins (Western blot) [4]: downregulated phospho-STAT3 (p-STAT3) at tyrosine 705 in a dose-dependent manner
average tumor size versus control mice at the end of treatment (PLC5 tumors; 10 mg/kg/day orally): less than half of those of control mice
anti-HCC effect and survival in orthotopic model [6]: displayed significant survival benefits compared with mice treated with vehicle or sorafenib
p-STAT3 / STAT3 activity (phospho-STAT3 ELISA and luciferase reporter) (phospho-STAT3 (Tyr705)): showed significant inhibition of STAT3 activity

CNC(=O)c1cc(Oc2ccc(NC(=O)Nc3ccc(Cl)c(C(F)(F)F)c3)cc2)ccn1 [Sorafenib, reference compound]
apoptosis (sub-G1) (HCC cells [1]): showed a significant increase in sub-G1 phase population
activity of SHP-1 in SHP-1 immunoprecipitates incubated with drug (SHP-1 [2]; PLC5 lysates, incubated 6 hours): increase the activity of SHP-1
tumor growth with radiotherapy combination (Huh-7 xenograft tumor): did not display a better synergistic effect when used in combination with radiotherapy
p-STAT3 and STAT3-related proteins (Western blot) [4]: down-regulated p-STAT3 at Y705 residue and suppressed Mc1-1 and cyclin D1
kinase activity of JAK2 (JAK2): neither sorafenib nor SC-1 altered the kinase activity of JAK2
transcription activity of STAT3 (Luc reporter) (STAT3): transcription activity of STAT3 was significantly decreased
activity of VEGFR1 (VEGFR1): significantly inhibited the activity of VEGFR1 in HUVEC cells
activity of p-STAT3 by STAT3 ELISA (phospho-STAT3 (Tyr705); Sk-Hep1 cells pre-treated with IL-6, 24 h): decreased the activity of p-STAT3 significantly
inhibition at 5 µM (Raf-1; PLC5, read-out: inhibition of Raf-1 kinase activity of the untreated cells): 50%
reduction in Raf-1 kinase activity (Raf-1; Raf-1 immunoprecipitated from PLC5 or Hep3B cell extracts, 10 μM, 24 h): 20-40%
viability of HCC cells / cytotoxicity (HCC cells [5]; HCC cell lines, MTT): decreased the viability of various HCC cells
Huh-7 tumor size / growth versus control (Huh-7 tumors; 10 mg/kg/day orally): less than half that of control mice
body weight or toxicity (Huh-7 tumors; mouse, in vivo, po, 10 mg/kg/day): no apparent differences in body weight or toxicity
SHP-1 activity in Huh-7 tumors (Huh-7 tumors): showed significant induction of SHP-1 activity in vivo
SHP-1 activity in Huh-7 tumors (Huh-7 tumors; listed as sorafenib): enhanced the activity of SHP-1 in Huh-7 tumours
IC50 (PLC5 cells): 8.3 µM
